# Assay results as given in ChEMBL document CHEMBL4813981, “Synthesis and in vitro antibacterial activity of new aminothiazole-oximepiperidone cephalosporins” (2021).
# Legend:
# Assay type in all cases: functional
# Klebsiella pneumoniae [1] = assay: Antibacterial activity against Carbapenem- resistant Klebsiella pneumoniae KR 15-9 assessed as reduction in bacterial growth
# Escherichia coli [2] = assay: Antibacterial activity against ESBLs positive Carbapenem-sensitive Escherichia coli 17-11 assessed as reduction in bacterial growth
# Acinetobacter baumannii [3] = assay: Antibacterial activity against Carbapenem- resistant Acinetobacter baumannii 17-13 assessed as reduction in bacterial growth
# Pseudomonas aeruginosa [4] = assay: Antibacterial activity against Carbapenem- sensitive Pseudomonas aeruginosa 17-22 assessed as reduction in bacterial growth
# Escherichia coli [5] = assay: Antibacterial activity against ESBLs positive Carbapenem-sensitive Escherichia coli 17-3 assessed as reduction in bacterial growth
# Escherichia coli [6] = assay: Antibacterial activity against ESBLs positive Carbapenem-sensitive Escherichia coli 17-22 assessed as reduction in bacterial growth
# Escherichia coli [7] = assay: Antibacterial activity against Escherichia coli NCTC 13353 assessed as reduction in bacterial growth
# Acinetobacter baumannii [8] = assay: Antibacterial activity against Carbapenem- resistant Acinetobacter baumannii 17-5 assessed as reduction in bacterial growth
# Escherichia coli [9] = assay: Antibacterial activity against ESBLs positive Carbapenem-sensitive Escherichia coli 17-18 assessed as reduction in bacterial growth
# Acinetobacter baumannii [10] = assay: Antibacterial activity against Carbapenem- resistant Acinetobacter baumannii 17-9 assessed as reduction in bacterial growth
# Klebsiella pneumoniae [11] = assay: Antibacterial activity against Carbapenem- resistant Klebsiella pneumoniae KR 15-6 assessed as reduction in bacterial growth
# Pseudomonas aeruginosa [12] = assay: Antibacterial activity against Carbapenem- sensitive Pseudomonas aeruginosa 17-21 assessed as reduction in bacterial growth
# Klebsiella pneumoniae [13] = assay: Antibacterial activity against ESBLs negative Carbapenem-sensitive Klebsiella pneumoniae 17-16 assessed as reduction in bacterial growth
# Klebsiella pneumoniae [14] = assay: Antibacterial activity against Carbapenem- resistant Klebsiella pneumoniae KR 15-5 assessed as reduction in bacterial growth
# Enterobacter cloacae [15] = assay: Antibacterial activity against Enterobacter cloacae 17-2 assessed as reduction in bacterial growth
# Pseudomonas aeruginosa [16] = assay: Antibacterial activity against Carbapenem- sensitive Pseudomonas aeruginosa 17-24 assessed as reduction in bacterial growth
# Acinetobacter baumannii [17] = assay: Antibacterial activity against Carbapenem- resistant Acinetobacter baumannii 17-3 assessed as reduction in bacterial growth
# Klebsiella aerogenes [18] = assay: Antibacterial activity against Enterobacter aerogenes 15-6 assessed as reduction in bacterial growth
# Escherichia coli [19] = assay: Antibacterial activity against ESBLs negative Carbapenem-sensitive Escherichia coli 17-7 assessed as reduction in bacterial growth
# Klebsiella aerogenes [20] = assay: Antibacterial activity against Enterobacter aerogenes 17-2 assessed as reduction in bacterial growth
# Enterobacter cloacae [21] = assay: Antibacterial activity against Enterobacter cloacae 17-3 assessed as reduction in bacterial growth
# Escherichia coli [22] = assay: Antibacterial activity against ESBLs positive Carbapenem-sensitive Escherichia coli 17-2 assessed as reduction in bacterial growth
# Escherichia coli [23] = assay: Antibacterial activity against ESBLs positive Carbapenem-sensitive Escherichia coli 17-10 assessed as reduction in bacterial growth
# Klebsiella pneumoniae [24] = assay: Antibacterial activity against Carbapenem- resistant Klebsiella pneumoniae KR 15-4 assessed as reduction in bacterial growth
# Enterobacter cloacae [25] = assay: Antibacterial activity against Enterobacter cloacae 17-9 assessed as reduction in bacterial growth
# Klebsiella pneumoniae [26] = assay: Antibacterial activity against Carbapenem- sensitive Klebsiella pneumoniae 17-10 overexpressing extended spectrum beta-lactamases assessed as reduction in bacterial growth
# Klebsiella pneumoniae [27] = assay: Antibacterial activity against ESBLs negative Carbapenem-sensitive Klebsiella pneumoniae 17-17 assessed as reduction in bacterial growth
# Klebsiella pneumoniae [28] = assay: Antibacterial activity against Carbapenem- sensitive Klebsiella pneumoniae 17-7 overexpressing extended spectrum beta-lactamases assessed as reduction in bacterial growth
# Klebsiella pneumoniae [29] = assay: Antibacterial activity against Carbapenem- resistant Klebsiella pneumoniae KR 15-7 assessed as reduction in bacterial growth
# Enterobacter cloacae [30] = assay: Antibacterial activity against Enterobacter cloacae 17-4 assessed as reduction in bacterial growth
# Klebsiella pneumoniae [31] = assay: Antibacterial activity against Carbapenem- sensitive Klebsiella pneumoniae 17-1 overexpressing extended spectrum beta-lactamases assessed as reduction in bacterial growth
# Escherichia coli [32] = assay: Antibacterial activity against ESBLs positive Carbapenem-sensitive Escherichia coli 17-15 assessed as reduction in bacterial growth
# Klebsiella pneumoniae [33] = assay: Antibacterial activity against ESBLs negative Carbapenem-sensitive Klebsiella pneumoniae 17-20 assessed as reduction in bacterial growth
# Enterobacter cloacae [34] = assay: Antibacterial activity against Enterobacter cloacae 17-5 assessed as reduction in bacterial growth
# Klebsiella pneumoniae [35] = assay: Antibacterial activity against Klebsiella pneumoniae ATCC BAA-1705 assessed as reduction in bacterial growth
# Escherichia coli [36] = assay: Antibacterial activity against ESBLs positive Carbapenem-sensitive Escherichia coli 17-5 assessed as reduction in bacterial growth
# Acinetobacter baumannii [37] = assay: Antibacterial activity against Carbapenem- resistant Acinetobacter baumannii 17-11 assessed as reduction in bacterial growth
# Klebsiella aerogenes [38] = assay: Antibacterial activity against Enterobacter aerogenes 17-1 assessed as reduction in bacterial growth
# Klebsiella pneumoniae [39] = assay: Antibacterial activity against Carbapenem- sensitive Klebsiella pneumoniae 17-2 overexpressing extended spectrum beta-lactamases assessed as reduction in bacterial growth
# Escherichia coli [40] = assay: Antibacterial activity against ESBLs positive Carbapenem-sensitive Escherichia coli 17-12 assessed as reduction in bacterial growth
# Klebsiella pneumoniae [41] = assay: Antibacterial activity against Carbapenem- sensitive Klebsiella pneumoniae 17-3 overexpressing extended spectrum beta-lactamases assessed as reduction in bacterial growth
# Pseudomonas aeruginosa [42] = assay: Antibacterial activity against Carbapenem- resistant Pseudomonas aeruginosa 17-8 assessed as reduction in bacterial growth
# Escherichia coli [43] = assay: Antibacterial activity against Escherichia coli ATCC 25922 assessed as reduction in bacterial growth
# Escherichia coli [44] = assay: Antibacterial activity against ESBLs positive Carbapenem-sensitive Escherichia coli 17-8 assessed as reduction in bacterial growth
# Acinetobacter baumannii [45] = assay: Antibacterial activity against Carbapenem- resistant Acinetobacter baumannii 17-10 assessed as reduction in bacterial growth
# Enterobacter cloacae [46] = assay: Antibacterial activity against Enterobacter cloacae 17-8 assessed as reduction in bacterial growth
# Klebsiella pneumoniae [47] = assay: Antibacterial activity against Carbapenem- sensitive Klebsiella pneumoniae 17-8 overexpressing extended spectrum beta-lactamases assessed as reduction in bacterial growth
# Pseudomonas aeruginosa [48] = assay: Antibacterial activity against Carbapenem- sensitive Pseudomonas aeruginosa 17-10 assessed as reduction in bacterial growth
# Enterobacter cloacae [49] = assay: Antibacterial activity against Enterobacter cloacae 17-7 assessed as reduction in bacterial growth
# Escherichia coli [50] = assay: Antibacterial activity against ESBLs negative Carbapenem-sensitive Escherichia coli 17-16 assessed as reduction in bacterial growth
# Pseudomonas aeruginosa [51] = assay: Antibacterial activity against Carbapenem- sensitive Pseudomonas aeruginosa 17-29 assessed as reduction in bacterial growth
# Klebsiella pneumoniae [52] = assay: Antibacterial activity against Carbapenem- sensitive Klebsiella pneumoniae 17-15 overexpressing extended spectrum beta-lactamases assessed as reduction in bacterial growth
# Escherichia coli [53] = assay: Antibacterial activity against ESBLs positive Carbapenem-sensitive Escherichia coli 17-6 assessed as reduction in bacterial growth
# Klebsiella pneumoniae [54] = assay: Antibacterial activity against Carbapenem- sensitive Klebsiella pneumoniae 17-11 overexpressing extended spectrum beta-lactamases assessed as reduction in bacterial growth
structure (smiles),measurement,setting,value
CC(C)(O/N=C(\C(=O)N[C@@H]1C(=O)N2C(C(=O)[O-])=C(C[n+]3ccccc3)CS[C@H]12)c1csc(N)n1)C(=O)O [CEFTAZIDIME],MIC,Klebsiella pneumoniae [1],64 µg/mL
same,MIC,Escherichia coli [2],32 µg/mL
same,MIC,Acinetobacter baumannii [3],> 64 µg/mL
same,MIC,Pseudomonas aeruginosa [4],0.5 µg/mL
same,MIC,Escherichia coli [5],2 µg/mL
same,MIC,Escherichia coli [6],> 64 µg/mL
same,MIC,Escherichia coli [7],64 µg/mL
same,MIC,Acinetobacter baumannii [8],> 64 µg/mL
same,MIC,Escherichia coli [9],2 µg/mL
same,MIC,Acinetobacter baumannii [10],> 64 µg/mL
same,MIC,Klebsiella pneumoniae [11],32 µg/mL
same,MIC,Pseudomonas aeruginosa [12],4 µg/mL
same,MIC,Klebsiella pneumoniae [13],2 µg/mL
same,MIC,Klebsiella pneumoniae [14],> 64 µg/mL
same,MIC,Enterobacter cloacae [15],64 µg/mL
same,MIC,Pseudomonas aeruginosa [16],2 µg/mL
same,MIC,Acinetobacter baumannii [17],> 64 µg/mL
same,MIC,Klebsiella aerogenes [18],8 µg/mL
same,MIC,Escherichia coli [19],0.125 µg/mL
same,MIC,Klebsiella aerogenes [20],16 µg/mL
same,MIC,Enterobacter cloacae [21],1 µg/mL
same,MIC,Escherichia coli [22],2 µg/mL
same,MIC,Escherichia coli [23],4 µg/mL
same,MIC,Klebsiella pneumoniae [24],> 64 µg/mL
same,MIC,Enterobacter cloacae [25],0.5 µg/mL
same,MIC,Klebsiella pneumoniae [26],16 µg/mL
same,MIC,Klebsiella pneumoniae [27],0.125 µg/mL
same,MIC,Klebsiella pneumoniae [28],> 64 µg/mL
same,MIC,Klebsiella pneumoniae [29],> 64 µg/mL
same,MIC,Enterobacter cloacae [30],0.5 µg/mL
same,MIC,Klebsiella pneumoniae [31],64 µg/mL
same,MIC,Escherichia coli [32],64 µg/mL
same,MIC,Klebsiella pneumoniae [33],0.125 µg/mL
same,MIC,Enterobacter cloacae [34],64 µg/mL
same,MIC,Klebsiella pneumoniae [35],64 µg/mL
same,MIC,Escherichia coli [36],4 µg/mL
same,MIC,Acinetobacter baumannii [37],32 µg/mL
same,MIC,Klebsiella aerogenes [38],8 µg/mL
same,MIC,Klebsiella pneumoniae [39],2 µg/mL
same,MIC,Escherichia coli [40],8 µg/mL
same,MIC,Klebsiella pneumoniae [41],> 64 µg/mL
same,MIC,Pseudomonas aeruginosa [42],32 µg/mL
same,MIC,Escherichia coli [43],0.06 µg/mL
same,MIC,Escherichia coli [44],16 µg/mL
same,MIC,Acinetobacter baumannii [45],32 µg/mL
same,MIC,Enterobacter cloacae [46],0.125 µg/mL
same,MIC,Klebsiella pneumoniae [47],> 64 µg/mL
same,MIC,Pseudomonas aeruginosa [48],8 µg/mL
same,MIC,Enterobacter cloacae [49],> 64 µg/mL
same,MIC,Escherichia coli [50],0.5 µg/mL
same,MIC,Pseudomonas aeruginosa [51],1 µg/mL
same,MIC,Klebsiella pneumoniae [52],32 µg/mL
same,MIC,Escherichia coli [53],32 µg/mL
same,MIC,Klebsiella pneumoniae [54],8 µg/mL
C[C@@H](O)[C@H]1C(=O)N2C(C(=O)O)=C(S[C@@H]3CN[C@H](C(=O)N(C)C)C3)[C@H](C)[C@H]12 [MEROPENEM],MIC,Klebsiella pneumoniae [1],> 64 µg/mL
same,MIC,Escherichia coli [2],< 0.03 µg/mL
same,MIC,Acinetobacter baumannii [3],64 µg/mL
same,MIC,Pseudomonas aeruginosa [4],1 µg/mL
same,MIC,Escherichia coli [5],< 0.03 µg/mL
same,MIC,Escherichia coli [6],0.06 µg/mL
same,MIC,Escherichia coli [7],< 0.03 µg/mL
same,MIC,Acinetobacter baumannii [8],64 µg/mL
same,MIC,Escherichia coli [9],< 0.03 µg/mL
same,MIC,Acinetobacter baumannii [10],32 µg/mL
same,MIC,Klebsiella pneumoniae [11],> 64 µg/mL
same,MIC,Pseudomonas aeruginosa [12],2 µg/mL
same,MIC,Klebsiella pneumoniae [13],< 0.03 µg/mL
same,MIC,Klebsiella pneumoniae [14],> 64 µg/mL
same,MIC,Enterobacter cloacae [15],0.125 µg/mL
same,MIC,Pseudomonas aeruginosa [16],2 µg/mL
same,MIC,Acinetobacter baumannii [17],16 µg/mL
same,MIC,Klebsiella aerogenes [18],0.06 µg/mL
same,MIC,Escherichia coli [19],< 0.03 µg/mL
same,MIC,Klebsiella aerogenes [20],0.06 µg/mL
same,MIC,Enterobacter cloacae [21],0.06 µg/mL
same,MIC,Escherichia coli [22],< 0.03 µg/mL
same,MIC,Escherichia coli [23],< 0.03 µg/mL
same,MIC,Klebsiella pneumoniae [24],> 64 µg/mL
same,MIC,Enterobacter cloacae [25],< 0.03 µg/mL
same,MIC,Klebsiella pneumoniae [26],< 0.03 µg/mL
same,MIC,Klebsiella pneumoniae [27],< 0.03 µg/mL
same,MIC,Klebsiella pneumoniae [28],0.06 µg/mL
same,MIC,Klebsiella pneumoniae [29],> 64 µg/mL
same,MIC,Enterobacter cloacae [30],< 0.03 µg/mL
same,MIC,Klebsiella pneumoniae [31],0.06 µg/mL
same,MIC,Escherichia coli [32],< 0.03 µg/mL
same,MIC,Klebsiella pneumoniae [33],< 0.03 µg/mL
same,MIC,Enterobacter cloacae [34],0.06 µg/mL
same,MIC,Klebsiella pneumoniae [35],32 µg/mL
same,MIC,Escherichia coli [36],< 0.03 µg/mL
same,MIC,Acinetobacter baumannii [37],32 µg/mL
same,MIC,Klebsiella aerogenes [38],0.125 µg/mL
same,MIC,Klebsiella pneumoniae [39],< 0.03 µg/mL
same,MIC,Escherichia coli [40],< 0.03 µg/mL
same,MIC,Klebsiella pneumoniae [41],< 0.03 µg/mL
same,MIC,Pseudomonas aeruginosa [42],32 µg/mL
same,MIC,Escherichia coli [43],< 0.03 µg/mL
same,MIC,Escherichia coli [44],< 0.03 µg/mL
same,MIC,Acinetobacter baumannii [45],16 µg/mL
same,MIC,Enterobacter cloacae [46],< 0.03 µg/mL
same,MIC,Klebsiella pneumoniae [47],0.125 µg/mL
same,MIC,Pseudomonas aeruginosa [48],0.25 µg/mL
same,MIC,Enterobacter cloacae [49],0.25 µg/mL
same,MIC,Escherichia coli [50],< 0.03 µg/mL
same,MIC,Pseudomonas aeruginosa [51],1 µg/mL
same,MIC,Klebsiella pneumoniae [52],< 0.03 µg/mL
same,MIC,Escherichia coli [53],< 0.03 µg/mL
same,MIC,Klebsiella pneumoniae [54],0.06 µg/mL
